According to patent publication US6841535B2, “Peptide-mediated transfection agents and methods of use” (Active Motif, priority 2000, dated 2005):
*1 amine or outer side, *2 acyl side, *3 side chain or, on linkers, in order; H or OH if unused. Where a SMILES comes first, the peptide text is derived from it. Where no end group is shown, it is not given here. Cysteamide = C(CS[*:3])N[*:1]

Legend:
[1] = test system: cardiac cell line H9C2; assay: Nuclear labeling of cells by fluorescein ODN-peptide conjugate; format: cell-based
Experimental: (§1) For the second ODN, the situation is clearer. This ODN conjugated 3′ with fluorescein and containing an SH group in 5′ for localization reasons has the sequence 5′-[…]-3′ (SEQ ID NO:31) and corresponds to the AS-βCOM antisense sequence complementary to conserved sequence region found in every mRNA encoding β subunit of Ca^2+ channels. After 5 min incubation at 37° C., more than 90% of the cells (cardiac cell line H9C2) were labeled in the nucleus while only 25% of the cells were labeled after 3 hours incubation when using the free ODN.

[2] = test system: β subunit of Ca^2+ channels; assay: Ba2+ current density of treated H9C2 cells; format: cell-based; conditions: all labeled cells
Experimental: as §1

[3] = test system: HS-68, NIH 3T3, C2C12, COS-7 and CEM-SS cell lines; assay: Cytotoxicity of MPG and MPG/DNA complex, MTT colorimetric assay; format: cell-based
Experimental: In order to generalize the use of MPG as an efficient delivery agent, the degree of cytotoxicity of MPG and of the MPG/DNA complex (charge ratio 5:1) were evaluated in several cell lines, including HS-68 and NIH 3T3 fibroblasts, C212 myoblasts, COS-7 kidney cells and human CEM-SS lymphoblasts. […] At much higher concentrations of 0.1 and 1 mM MPG, however, cell viability decreased by ˜25 and 60%, respectively.
The cytotoxicity of both MPG and MPG/plasmid (pRL-SV40 plasmid encoding reporter R.reniformis luciferase) complexes were investigated in the cell lines mentioned above. Cells grown in 35 mm diameter dishes to 75% confluency (0.5-1×10^6 cells per dish) were incubated with 0.1 μM to 1 mM MPG alone or complexed with DNA in a 5:1 ratio, in 1 ml DMEM for 3 h, after which 10% serum was added. Cell culture medium with MPG or MPG/plasmid was not changed, and cell proliferation was measured over 4 days. Cytotoxicity was evaluated by the MTT colorimetric assay, after removing cell culture medium and replacing it with PBS containing 5 mg/ml of MTT (Mosmann, T. (1983) J. Immunol. Methods, 65: 55-63). Results shown correspond to the averages of four separate experiments.
HS-68, NIH 3T3, C2C12, cos-7 and CEM-SS cell lines were incubated with 0.1 μM to 1 mM MPG alone (A) and with MPG complexed with DNA (pRL-SV40 plasmid encoding R.reniformis luciferase) in a peptide/DNA ratio of 5:1 (B), at 37° C. in DMEM supplemented with 10% FCS. The cytotoxicity of MPG alone and of MPG/DNA complexes was evaluated in MTT colorimetric assays and the results were expressed as percentages of dye reduction in cell lines incubated without MPG. The results correspond to averages of four separate experiments.

[4] = physiological conditions; cited from earlier work
[5] = test system: HS68, NIH 3T3 and 293 cell lines; assay: Toxicity of Pep-2 in cell lines (MTT staining); conditions: concentration of 1 mM
[6] = test system: mammalian fibroblasts, NIH 3T3 fibroblasts or murine L1210 lymphocytes; assay: Cellular localization of lucifer yellow-linked peptides; format: cell-based; conditions: 3 min incubation at 10 μM
[7] = Transmembrane ionic channel formation; set-up: species or system Xenopus laevis; conditions: voltage-triggered insertion
Text: They were characterized on Xenopus laevis oocyte plasma membranes and confirmed on planar lipid bilayers proving thus that channel formation is a true property of the peptide (FIG. 11). The insertion of the peptide in the membrane is voltage-triggered and the channel thus formed are selective for monovalent cations.

[8] = test system: Acheloplasma laidlawii and Spiroplasma melliferum; conditions: concentrations much lower than minimal inhibitory concentrations; cited from earlier work
[9] = phosphatidylcholine or phosphatidylserine monolayers; cited from earlier work

For “5′-ACCAGCCTTCCGATCCACCAGTCATT-3′ (DNA, backbone not given here; 3' fluorescein conjugate, 5' thiol group, peptide conjugated) [second ODN]”, the “cells labeled in the nucleus” value ([1]; ODN conjugated to peptide, 5 min incubation at 37° C.) was “more than 90%”, the cells labeled ([1]; free ODN, 3 hours incubation) was 25% and the “reduction of Ba^2+ current density” value [2] was “≈ 7 fold”.
In the case of `CSCC[C@H](NC(=O)[C@@H](NC(=O)[C@H](CO)NC(=O)CNC(=O)[C@H](C)NC(=O)[C@H](C)NC(=O)CNC(=O)[C@H](CC(C)C)NC(=O)[C@H](Cc1ccccc1)NC(=O)CNC(=O)[C@H](CC(C)C)NC(=O)[C@H](Cc1ccccc1)NC(=O)[C@H](CC(C)C)NC(=O)[C@H](C)NC(=O)CNC(C)=O)[C@@H](C)O)C(=O)NCC(=O)N[C@@H](C)C(=O)N[C@@H](Cc1c[nH]c2ccccc12)C(=O)N[C@@H](CO)C(=O)N[C@@H](CCC(N)=O)C(=O)N1CCC[C@H]1C(=O)N[C@@H](CCCCN)C(=O)N[C@@H](CO)C(=O)N[C@@H](CCCCN)C(=O)N[C@@H](CCCNC(=N)N)C(=O)N[C@@H](CCCCN)C(=O)N[C@H](C(=O)NCCS)C(C)C` [MPG] (Ac-GALFLGFLGAAGSTMGAWSQPKSKRKV-Cysteamide), the “decrease of cell viability” value ([3]; MPG alone 0.1 mM) is reported as about 25%, the “decrease of cell viability” value ([3]; MPG alone 1 mM) is reported as about 60% and the cytotoxic effects ([3]; MPG alone up to 10 μM, 48 h at 37° C.) is reported as “did not induce any cytotoxic effects”. The cytotoxicity ([3]; MPG complexed with pRL-SV40 at 5:1 ratio, 0.1 mM MPG) was “no cytotoxicity could be observed”, the “decrease of cell viability” value ([3]; MPG complexed with pRL-SV40 at 5:1 ratio, 1 mM MPG) was about 40% and the solubility [4] was “highly soluble”.
In the case of `CC(=O)N[C@@H](Cc1ccc(O)cc1)C(=O)NCC(=O)N[C@@H](Cc1ccccc1)C(=O)N[C@@H](CCCCN)C(=O)N[C@@H](CCCCN)C(=O)N[C@@H](CCCNC(=N)N)C(=O)N[C@@H](CCCNC(=N)N)C(=O)N[C@@H](Cc1c[nH]c2ccccc12)C(=O)N[C@@H](CO)C(=O)N[C@@H](CCC(N)=O)C(=O)N1CCC[C@H]1C(=O)N[C@@H](CCCCN)C(=O)N[C@@H](CCC(=O)O)C(=O)N[C@H](C(=O)N[C@@H](Cc1c[nH]c2ccccc12)C(=O)N[C@@H](CCC(=O)O)C(=O)N[C@H](C(=O)N[C@@H](Cc1c[nH]c2ccccc12)C(=O)N[C@@H](Cc1c[nH]c2ccccc12)C(=O)N[C@H](C(=O)N[C@@H](CCC(=O)O)C(=O)NCCS)[C@@H](C)O)[C@@H](C)O)[C@@H](C)O` [Pep-1-cya] (Ac-YGFKKRRWSQPKETWETWWTE-Cysteamide), the “decrease of cell viability” value [5] is reported as “about 10%”.
For “MGLGLHLLVLAAALQGAKKKRKV (Ac-MGLGLHLLVLAAALQGAKKKRKV; not fully specified (C-terminus); printed as MGLGLHLLVLAAALQGAKKKRKV) [[2]]”, the “final localization of lucifer yellow-linked peptide” value [6] is listed as “localize in the nuclei of the cells”, the channel formation [7] is listed as “induce formation of transmembrane ionic channels” and the “effect on membrane potential and transmembrane pH gradient” value [8] is listed as “decrease”. For the same compound, the surface pressure increase [9] was about 15 mN/m.
